{
  "source": "patent US11866712B2",
  "about": "“System based on the reassembly of GFP for studying the trans-translational activity and identifying new antibiotics” (UNIVERSITE DE RENNES 1, priority 2018, dated 2024)",
  "key": {"translation": {"system": "translation", "settings": "known from Ramadoss et al., PNAS USA, 2013; cited from earlier work"}, "[1]": {"system": "transcription and translation", "assay": "in vitro translation control: production of fluorescent sfalaGFP from PCR product in PURExpress kit", "type": "biochemical, Escherichia coli", "settings": "KKL-35 10 μM added to the sfalaGFP PCR product; FIG. 3(A)", "procedure": "(§1) In order to evaluate the tmRNA labeling activity in vitro, the present inventors used a reconstituted cell-free protein synthesis system (PURE for Protein Synthesis Using Recombinant Elements) (Shimizu et al., Nature Biotechnol., 2001, 19(8): 751-755). The experiments were carried out using the PURExpress® commercial kit (sold by New England Biolabs) containing all the purified components of Escherichia coli that are required to carry out both the transcription and the translation. In order to convert this kit into an in vitro fluorescent trans-translation system, the inventors added the components required for the trans-translation: tmRNAGFP11, the SmpB protein, and a non-stop DNA sequence encoding the first 10 domains of sfGFP (see Materials and Methods section).\nTranslation and trans-translation assays. The in vitro translation reactions were carried out according to the recommendations of New England Biolabs. […]\nAnalysis by fluorescence. After overnight incubation at 37° C., the reaction volume was adjusted to 125 μL and transferred into a cuvette for analysis by fluorescence using an LS 55 fluorescence spectrometer (Perkin Elmer). The fluorescence intensity at 510 nm of the trans-translated sfalaGFP was determined using an excitation at 485 nm.\nThe inventors first of all confirmed that there was no fluorescence generated by the components of the PURExpress® kit (see FIG. 3). […]"}, "trans-translation": {"system": "trans-translation", "assay": "in vitro trans-translation assay (PURExpress kit, tmRNAGFP11, SmpB, sfGFP1-10 nonstop; GFP fluorescence)", "type": "biochemical, Escherichia coli", "settings": "concentration of 10 μM; FIG. 3(B)", "procedure": "as §1\nTranslation and trans-translation assays. The in vitro translation reactions were carried out according to the recommendations of New England Biolabs. The in vitro trans-translation assays were carried out in various steps using the PURExpress® protein synthesis kit (New England Biolabs). […]\nAnalysis by fluorescence. After overnight incubation at 37° C., the reaction volume was adjusted to 125 μL and transferred into a cuvette for analysis by fluorescence using an LS 55 fluorescence spectrometer (Perkin Elmer). The fluorescence intensity at 510 nm of the trans-translated sfalaGFP was determined using an excitation at 485 nm. […]"}},
  "note": "Entries after “also recorded” stand apart in the source; their conditions may differ.",
  "data": [
    {"smiles": "O=C(Nc1nnc(-c2ccc(F)cc2)o1)c1ccc(Cl)cc1", "note": "[KKL-35]", "values": [
      {"measurement": "anti-translation activity", "setting": "translation", "value": "strong"},
      {"measurement": "inhibition of transcription and of translation (anti-transcription and anti-translation activity)", "setting": "[1]", "value": "No inhibition; also recorded: absence"},
      {"measurement": "activity against the trans-translation", "setting": "trans-translation", "value": "slight activity"}
    ]}
  ]
}
